Results taken from patent EP0128333B1, “Agent for inactivating the mutagenicity of coffee and method therefor” (SUNTORY LIMITED, priority 1983, dated 1984).

Key:
[1] = tested on: Salmonella typhimurium strain TA 100; test: Mutagenicity / antimutagenic effect, preincubation Salmonella (Ames) test; conditions: Salmonella typhimurium strain TA 100 (histidine-requiring), 48 h, pH 7.4
Protocol: • I) Measuring mutagenicity and the antimutagenic effect • (i) Method: • The preincubation method described in Sugimura & Nagao; Chemical Mutagens, Vol. 6, p. 41, 1981 was used. • (ii) Microorganism: • Histidine-requiring Salmonella typhimurium strain TA 100 (hereunder S. TA 100) was used. • (iii) Preparation of samples: • (a) Instant coffee: • Instant coffee powder was dissolved in distilled water. Predetermined amounts of catalase were also dissolved in distilled water, and 50 µl of each solution was mixed with an equal amount of the aqueous coffee solution. • (b) Regular coffee: • Roasted and ground coffee beans (20 g) were extracted with hot distilled water (250 ml), and the extract was filtered through coffee filter paper No. 12 manufactured by Kalita Co., Ltd. The extract was freeze-dried, and after measuring the weight of the dry product, it was dissolved in distilled water. Predetermined amounts of catalase were also dissolved in distilled water, and 50 pl of each solution was mixed with an equal amount of the aqueous solution of coffee concentrate. • (c) Catalase: • A pure isolate from calf liver as manufactured by P-L Biochemicals, Inc. was used. […] After incubation at 37°C for 48 hours, the number of colonies forming on the plate was counted as revertants.

[2] = tested on: human cells; conditions: cited from earlier work
[3] = tested on: Neurospora crassa; conditions: cited from earlier work
[4] = tested on: mouse deodenum; conditions: 0.1 % of hydrogen peroxide; cited from earlier work

## OO [hydrogen peroxide]
[1]
  mutagenicity to S. TA 100: 160 revertants/108 survivors/pmole
[2]
  clastogenic to human cells: clastogenic
[3]
  mutagenic to Neurospora crassa: mutagenic
[4]
  carcinogenicity: cause malignant tumors
